Patent US20170050957A1, “4-AMINO-6-(HETEROCYCLIC)PICOLINATES AND 6-AMINO-2-(HETEROCYCLIC)PYRIMIDINE-4-CARBOXYLATES AND THEIR USE AS HERBICIDES” (Dow AgroSciences LLC, priority 2013, published 2017)
Like-named read-outs stand apart in the source and are kept apart here.

Experiments:
[1] = system: Key Broadleaf Weed and Crop Species; test: Post-emergent Test II herbicidal activity (Table 15); assay type: in vivo; details: post-emergence, 336 h, 14 d; for pest or weed control at 35 g/ha: 35 g ai/ha; for pest or weed control at 70 g/ha: 70 g ai/ha; for pest or weed control at 140 g/ha: 140 g ai/ha
How it was run: (§1)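 Plants grown in greenhouse (~15 h photoperiod, 23-29 °C day, 22-28 °C night) to first or second true leaf stage, then sprayed post-emergence at 187 L/ha with a high rate and 1/2×, 1/4×, 1/8× and 1/16× dilutions. Injury scored visually after 14 d, 0-100% versus untreated plants.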

[2] = system: Key Grass and Sedge Weeds as well as Grass Crops; test: Post-emergent Test II herbicidal activity (Table 16); assay type: in vivo; details: post-emergence, 336 h; for pest or weed control at 35 g/ha: 35 g ai/ha; for pest or weed control at 70 g/ha: 70 g ai/ha; for pest or weed control at 140 g/ha: 140 g ai/ha
How it was run: as §1

[3] = Abutilon theophrasti, velvetleaf (Abutilon theophrasti), read-out: Visual Growth Reduction (%) 14 Days After Application, ABUTH
[4] = Amaranthus retroflexus, redroot pigweed (Amaranthus retroflexus), read-out: Visual Growth Reduction (%) 14 Days After Application, AMARE
[5] = Brassica napus, oilseed rape, canola (Brassica napus), read-out: Visual Growth Reduction (%) 14 Days After Application, BRSNN
[6] = Chenopodium album, lambsquarters (Chenopodium album), read-out: Visual Growth Reduction (%) 14 Days After Application, CHEAL
[7] = Euphorbia heterophylla, wild poinsettia (Euphorbia heterophylla), read-out: Visual Growth Reduction (%) 14 Days After Application, EPHHL
[8] = Helianthus annuus, sunflower (Helianthus annuus), read-out: Visual Growth Reduction (%) 14 Days After Application, HELAN
[9] = Cyperus esculentus, yellow nutsedge (Cyperus esculentus), 14 days after application, read-out: Visual Growth Reduction (%) 14 Days After Application CYPES
[10] = Echinochloa crus-galli, barnyardgrass (Echinochloa crus-galli), 14 days after application, read-out: Visual Growth Reduction (%) 14 Days After Application ECHCG
[11] = Oryza sativa, rice (Oryza sativa), 14 days after application, read-out: Visual Growth Reduction (%) 14 Days After Application ORYSA
[12] = Setaria faberi, giant foxtail (Setaria faberi), 14 days after application, read-out: Visual Growth Reduction (%) 14 Days After Application SETFA
[13] = Triticum aestivum, wheat, spring (Triticum aestivum), 14 days after application, read-out: Visual Growth Reduction (%) 14 Days After Application TRZAS
[14] = Zea mays, maize, corn (Zea mays), 14 days after application, read-out: Visual Growth Reduction (%) 14 Days After Application ZEAMX
[15] = Cyperus esculentus, yellow nutsedge (Cyperus esculentus), 14 d, read-out: Visual Growth Reduction (%) 14 Days After Application, CYPES
[16] = Echinochloa crus-galli, barnyardgrass (Echinochloa crus-galli), 14 d, read-out: Visual Growth Reduction (%) 14 Days After Application, ECHCG
[17] = Oryza sativa, rice (Oryza sativa), 14 d, read-out: Visual Growth Reduction (%) 14 Days After Application, ORYSA
[18] = Setaria faberi, giant foxtail (Setaria faberi), 14 d, read-out: Visual Growth Reduction (%) 14 Days After Application, SETFA
[19] = Triticum aestivum, wheat, spring (Triticum aestivum), 14 d, read-out: Visual Growth Reduction (%) 14 Days After Application, TRZAS
[20] = Zea mays, maize, corn (Zea mays), 14 d, read-out: Visual Growth Reduction (%) 14 Days After Application, ZEAMX

Compound	pest or weed control at 35 g/ha [1, 3] [%]	pest or weed control at 70 g/ha [1, 3] [%]	pest or weed control at 140 g/ha [1, 3] [%]	pest or weed control at 35 g/ha [1, 4] [%]	pest or weed control at 70 g/ha [1, 4] [%]	pest or weed control at 140 g/ha [1, 4] [%]	pest or weed control at 35 g/ha [1, 5] [%]	pest or weed control at 70 g/ha [1, 5] [%]	pest or weed control at 140 g/ha [1, 5] [%]	pest or weed control at 35 g/ha [1, 6] [%]	pest or weed control at 70 g/ha [1, 6] [%]	pest or weed control at 140 g/ha [1, 6] [%]	pest or weed control at 35 g/ha [1, 7] [%]	pest or weed control at 70 g/ha [1, 7] [%]	pest or weed control at 140 g/ha [1, 7] [%]	pest or weed control at 35 g/ha [1, 8] [%]	pest or weed control at 70 g/ha [1, 8] [%]	pest or weed control at 140 g/ha [1, 8] [%]	melting point [°C]	also measured
COC(=O)c1nc(-c2ccc3ccsc3c2)nc(N)c1OC [Compound 3.20]	0 to 29	0 to 29	0 to 29	0 to 29	60 to 74	60 to 74	30 to 44	60 to 74	60 to 74	85 to 94	95 to 100	95 to 100	75 to 84	95 to 100	95 to 100	75 to 84	85 to 94	85 to 94	143 to 145	pest or weed control at 35 g/ha [2, 9]: 30 to 44%; pest or weed control at 70 g/ha [2, 9]: 30 to 44%; pest or weed control at 140 g/ha [2, 9]: 85 to 94%; pest or weed control at 35 g/ha [2, 10]: 0 to 29%; pest or weed control at 70 g/ha [2, 10]: 45 to 59%; pest or weed control at 140 g/ha [2, 10]: 60 to 74%; pest or weed control at 35 g/ha [2, 11]: 0 to 29%; pest or weed control at 70 g/ha [2, 11]: 0 to 29%; pest or weed control at 140 g/ha [2, 11]: 0 to 29%; pest or weed control at 35 g/ha [2, 12]: 0 to 29%; pest or weed control at 70 g/ha [2, 12]: 0 to 29%; pest or weed control at 140 g/ha [2, 12]: 60 to 74%; pest or weed control at 35 g/ha [2, 13]: 0 to 29%; pest or weed control at 70 g/ha [2, 13]: 0 to 29%; pest or weed control at 140 g/ha [2, 13]: 30 to 44%; pest or weed control at 35 g/ha [2, 14]: 0 to 29%; pest or weed control at 70 g/ha [2, 14]: 75 to 84%; pest or weed control at 140 g/ha [2, 14]: 85 to 94%
COC(=O)c1nc(-c2ccc(Cl)c3ccoc23)c(F)c(N)c1Cl [Compound 2.24]	75 to 84	75 to 84	95 to 100	95 to 100	95 to 100	95 to 100	60 to 74	75 to 84	75 to 84	95 to 100	95 to 100	95 to 100	60 to 74	75 to 84	75 to 84	75 to 84	75 to 84	85 to 94	167	pest or weed control at 35 g/ha [2, 15]: 60 to 74%; pest or weed control at 70 g/ha [2, 15]: 75 to 84%; pest or weed control at 140 g/ha [2, 15]: 85 to 94%; pest or weed control at 35 g/ha [2, 16]: 0 to 29%; pest or weed control at 70 g/ha [2, 16]: 0 to 29%; pest or weed control at 140 g/ha [2, 16]: 0 to 29%; pest or weed control at 35 g/ha [2, 17]: 0 to 29%; pest or weed control at 70 g/ha [2, 17]: 0 to 29%; pest or weed control at 140 g/ha [2, 17]: 0 to 29%; pest or weed control at 35 g/ha [2, 18]: 0 to 29%; pest or weed control at 70 g/ha [2, 18]: 0 to 29%; pest or weed control at 140 g/ha [2, 18]: 0 to 29%; pest or weed control at 35 g/ha [2, 19]: 0 to 29%; pest or weed control at 70 g/ha [2, 19]: 0 to 29%; pest or weed control at 140 g/ha [2, 19]: 0 to 29%; pest or weed control at 35 g/ha [2, 20]: 0 to 29%; pest or weed control at 70 g/ha [2, 20]: 30 to 44%; pest or weed control at 140 g/ha [2, 20]: 60 to 74%
